Experimental data as given in ChEMBL document CHEMBL3832079, “DailyMed|setid=c8806b45-493a-4373-bce7-736e97f9f876 | DIVALPROEX SODIUM - divalproex sodium tablet, delayed release|REMEDYREPACK INC”.
Several values for one entry are separate records, joined by “and”; a condition that tells them apart may be missing. Equal values may be shown once.

What was measured:
Homo sapiens [1] = test: Evaluation of pharmacokinetic parameters for Valproic acid following single oral administration of Divalproex Sodium tablets or capsules.; assay type: ADME, organism-based; conditions: in vivo, dosed compound id 430, dosed compound name DIVALPROEX SODIUM, regimen Single dose, tissue Plasma
Homo sapiens [2] = test: Evaluation of pharmacokinetic parameters for Valproic acid following oral administration of Divalproex Sodium.; assay type: ADME, organism-based; conditions: in vivo, dosed compound id 431, dosed compound name VALPROATE SALT, tissue Plasma

`CCCC(CCC)C(=O)O` [VALPROIC ACID] was tested, and the Tmax (Homo sapiens [1]; dietary status Fasting) was 3.3 h and 4 h, the Tmax (Homo sapiens [1]; dietary status Fed) was 4.8 h and 8 h and the t1/2 (Homo sapiens [1]; dose 250 to 1000 mg) was 9 to 16 h. For the same compound, the CL (Homo sapiens [2]; gender female) was 4.7 L/hr/1.73 m2, the t1/2 (Homo sapiens [2]; gender male and female) was 12 h and 18 h and the CL (Homo sapiens [2]; gender male) was 4.8 L/hr/1.73 m2. For the same compound, the t1/2 (Homo sapiens [2]) was 10 to 67 h and 7 to 13 h.
